Assay results published in patent publication US20130231292A1, “Synergistic anti-proliferation activity of TAS-108 with mTOR inhibitors against cancer cells” (priority 2012, published 2013).

Key:
BT-549 = assay: Combination screen of TAS-108 with a second compound, CellTiter-Glo; type: cell-based, human; details: BT-549, in combination with TAS-108
HS 578T = assay: as above; details: in combination with TAS-108
Procedure: (§1) Cells were treated with compounds alone or in combination for three days and CellTiter-Glo® Luminescent Cell Viability Assay (Promega Corp.) was used as the endpoint to measure cell viability.
(§2) Cells were cultured in RPMI with 10% fetal bovine serum and used between passage 2 and passage 20.
(§3) Other compounds used were purchased from commercial sources (Sigma, AK Scientific). 40 mM Compound stocks in 100% DMSO were made. Master plates were made with Janus (PerkinElmer), then further diluted and added to the cell plates with Matrix Platemate (Thermo) on Day 0.
(§4) CellTiter-Glo® Luminescent Cell Viability Assay (Promega Corp.) was used to measure ATP as an indicator of viable cells on Day 3 using Envision (PerkinElmer) and back up plate reader Analyst HT (MDS) and Gen5 (BioTek).
(§5) Relative Luminescent Units (RLU) were plotted against corresponding drug concentrations and fitted with a standard four parameter sigmoidal curve with custom coded R program. Percentage growth inhibition is calculated as: [(Ti−Tz)/(C−Tz)]×100 for concentrations for which Ti≧Tz and [(Ti−Tz)/Tz]×100 for concentrations for which Ti<Tz.
(§6) Twenty-five doses were tested for each pair of combinations.
(§7) N: no synergistic effect; Y: synergistic effect; y: weak synergistic effect.

MCF7 = assay: as above; details: MCF7, in combination with TAS-108
Procedure: as §1, §2, §3, §4, §5, §6, §7

MDA-MB-231 = assay: as above; details: MDA-MB-231, in combination with TAS-108
Procedure: as §1, §2, §3, §4, §5, §6, §7

MDA-MB-468 = assay: as above; details: MDA-MB-468, in combination with TAS-108
Procedure: as §1, §2, §3, §4, §5, §6, §7

T-47D = assay: as above; details: in combination with TAS-108
Procedure: as §1, §2, §3, §4, §5, §6, §7

[1] = test system: human mammary carcinoma cell lines; assay: Combination screen of TAS-108 with a second compound, all six breast lines; details: number of the six breast cell lines with synergy, in combination with TAS-108
Procedure: as §1, §2, §3, §4, §5, §6, §7

CNC(=O)c1cc(Oc2ccc(NC(=O)Nc3ccc(Cl)c(C(F)(F)F)c3)cc2)ccn1 [Sorafenib]
Synergistic effect of TAS 108 paired with compound (BT-549): N
Synergistic effect of TAS 108 paired with compound (HS 578T): N
Synergistic effect of TAS 108 paired with compound (MCF7): N
Synergistic effect of TAS 108 paired with compound (MDA-MB-231): N
Synergistic effect of TAS 108 paired with compound (MDA-MB-468): N
Synergistic effect of TAS 108 paired with compound (T-47D): N
Synergy # [1]: 0
